Laboratory results as given in patent US6429204B1, “Method of inhibiting cancer growth” (University of Miami, priority 1997, dated 2002).
Values after ≈ are worked out from the molar mass of the structure shown.

Assays:
C8161 cells = experiment: In vivo metastasis assay, C8161 cells i.v. in SCID mice; details: for Number of Lung Metastases/Mouse: Average ± SEM, control 231 ± 49
Procedure: Immunosuppressed mice (athymic nude/nude SCID females from Harlan Sprague Dawley) were housed in autoclaved cages with microisolator tops, and all manipulations of the animals were done in a laminar flow hood after wiping down both the hood, gloves and cages with ABQ sterilant. The mice were fed sterile Pico Lab Chow (Purina) and autoclaved St. Louis tap water. […] The compounds and control (sterile water plus 2% carboxymethyl cellulose) were kept stored at −80° C. wrapped in aluminum foil to prevent any light induced changes, and each day's supply was thawed just prior to use. Four compounds were tested for their effects on the metastatic potential of C8161 cells injected intravenously via the tail vein: […] The concentration of the compounds in the vials used to give the 100 mg/kg doses were 2.5 times that in the 40 mg/kg dose so that approximately the same volume was used in both cases, approximately 0.5 mL/animal. The experiments started with nine animals per group at day −4. On day zero, 2×10^5 C8161 cells in cold Hank's Balanced Salt Solution (HBSS) were injected intravenously via tail vein inoculation. The experiment was continued for an additional 24 days, at which time the animals were sacrificed and their lungs removed and fixed in a solution of Bouins/formaldehyde (5 parts:1 part). Tumors were quantitated on the entire surface of the lungs by rotating the lungs and counting the tumors on each lobe using a 6× magnifying glass. Statistical analysis was performed using the statistical package of Microsoft's Excel spreadsheet software.

Dunning MAT LyLu cells = experiment: Cytotoxic effect on MAT LyLu cells (trypan blue); type: cell-based, rat; details: 24 hr or 48 hr exposure
Procedure: Cell viability was estimated by trypan blue staining following exposure to the drugs. The results of these studies are summarized in FIG. 4A (24 hours) and FIG. 4B (48 hr). Data are presented as Mean±SEM from three separate experiments.

gelatinase A (MMP-2) = experiment: Gelatin zymography of conditioned media of TSU PR1 and MAT LyLu cells, MMP-2; type: cell-based; details: 48 hours, serum-free medium
Procedure: (§1) Next we examined whether CMT-3 and doxycycline differentially affect the production of two major classes of gelatinases: gelatinase A (MMP-2) and gelatinase B (MMP-9). Confluent cultures of TSU PR1 and MAT LyLu cells were incubated with various concentrations of doxycycline and CMT-3 for 48 hours in serum-free medium. The conditioned media were then analyzed for MMPs by zymography as described below.
(§2) Conditioned media were collected from the cultures that had been treated with doxycycline or CMT-3 for 2 days. Media were then incubated with SDS-gel electrophoresis sample buffer for 30 min at room temperature, and then analyzed by gel electrophoresis on SDS-polyacrylamide gel (8%) containing gelatin (1 mg/mL). Following electrophoresis, the gels were washed twice with 0.25% TRITON® X100 for 30 min each, and incubated for 18 hr at 37° C. in an MMP digestion buffer comprising 20 mM Tris-HCl, pH 7.4, containing 30 mM NaCl, 1 mM PMSF, 10 mM CaCl2, 2 μM ZnSO4, 0.005% Brij35, and 0.02 NaN3 (Lokeshwar 1993a). After incubation, the gels were briefly rinsed in distilled water and stained with 0.25% Coomassie brilliant blue R250 prepared in 40% isopropanol solution for 1 hr. Gels were destained with 7% acetic acid. the locations of MMPs in the gels were visible as clear areas on a blue background, indicative of digested gelatin.

[1] = system: activation of MMPs by p-aminophenyl mercuric acetate; experiment: Inhibition of APMA activation of MMPs in processed conditioned medium; type: biochemical
Procedure: In addition, the ability of doxycycline or CMT-3 to inhibit APMA activation of MMPs was tested. Processed culture-conditioned medium was incubated with the drugs for 1 hr before adding 1 mM APMA, and the incubation was continued thereafter for 2 hr. ^3H-gelatin was then added and the assy was continued for 4 hr. All assays were performed in duplicate tubes, and repeated at least twice.
MMP activity in the culture media was examined at 1 mM and 10 mM CaCl2, with no change in [Zn^2+] in the assay buffer. We employed 1 mM CaCl2, as this concentration is closer to physiological concentration, and 10 mM CaCl2, as it is reported to be the optimum concentration in in vitro assays (Woessner 1991). As is shown in Table 2, both CMT-3 and doxycycline inhibited in vitro activated gelatinases.

DU-145 tumor cells = experiment: Alamar Blue viability assay, DU-145; type: cell-based, human
From the text: Several cancer cell lines and normal cells were examined in vitro to determine whether tetracycline compounds produce cytotoxic (cell killing) effects. A conventional assay for viability of cultured cells based on redox activity in the cells was employed (Pagé et al. 1993). The assay uses a redox dye Alamar Blue, which is a fluorogenic indicator dye that is converted to a fluorescent red product only when cells are carrying out electron transport activity, a widely accepted criterion of viability.
Cultured cells from three prostate tumor cell lines, LNCAP, DU-145, and PC-3, and normal prostate stromal cells obtained by biopsy of a normal person, were allowed to grow to confluence in multiwell microplates to minimize differences in proliferative activity among the cell types at the time of exposure to the test compound. CMT-3 was added to the wells at concentrations of 10 μM and 20 μM (50 μM also in the case of DU-145). At the start of the experiment, and again at 1, 2, and 3 days, selected wells were incubated with the indicator dye for 3 hr, and the fluorescence was measured on a Cytofluor 2300 fluorescent microplate reader.

[2] = system: DU-145 and TSU-PR1 prostate cancer cell lines; experiment: Prostate cancer cell viability/proliferation (trypan blue, MTT); type: cell-based, human; details: Homo sapiens; 48 hr exposure; read-out: 50% inhibition dose (IC50), cell proliferation
From the text: To determine the cytotoxicity of CMTs on prostate tumor cell lines, TSU-PR1 cells (and cells of other tumor cell lines) were exposed to various CMTs or to doxycycline for 24 hr or 48 hr in a complete medium. Cell viability (percent of live cells) was estimated by counting the cells following trypan blue staining. Cellular viability was also estimated by the tetrazolium dye reduction assay (MTT assay) (Lokeshwar et al. 1995b). Due to the aggressive proliferative capacity of cancer cells, it is assumed that viable cells are actively proliferating. Therefore, the measurement of viability was used as an estimate of proliferation. Results are expressed as Mean±SEM from three separate experiments.

gelatinase B (MMP-9) = experiment: Gelatin zymography of conditioned media of TSU PR1 and MAT LyLu cells, MMP-9; type: cell-based; details: 48 hours, serum-free medium
Procedure: as §1, §2

- IC50, inhibition of activation of MMPs by APMA ([1]; 10 mM CaCl2): 1.0 µg/mL
- IC50 ([1]; 10 mM CaCl2, value in brackets): 2.2 µM
- IC50 [2]: 2.7 µg/mL (≈ 7.27 µM)
Structure (SMILES): NC(=O)C1=C(O)CC2CC3Cc4cccc(O)c4C(=O)C3=C(O)C2(O)C1=O (stereo not drawn) [CMT-3, 6-demethyl-6-deoxy-4-de(dimethylamino)tetracycline]
- Number of Lung Metastases/Mouse (C8161 cells; 40 mg/kg daily intragastric): 111 ± 105
- effect on number of lung metastases (significance) (C8161 cells; 40 mg/kg daily, p<0.05): significantly reduced the number of lung metastases
- effect on number of lung metastases (significance) (C8161 cells; 100 mg/kg): did not significantly reduce the number of lung metastases
- Number of Lung Metastases/Mouse (C8161 cells; 100 mg/kg daily intragastric): 176 ± 82
- inhibition of cell proliferation (rank among tested drugs) (Dunning MAT LyLu cells): most effective inhibitors of cell proliferation
- MMP-2 levels in conditioned media (zymography) (gelatinase A (MMP-2)): decreased MMP-2 and MMP-9 levels at a lower concentration than did doxycycline
- cytotoxicity (DU-145 tumor cells; 20 μM): some cytotoxicity appearing after 72 hr
- cytotoxicity (DU-145 tumor cells; 50 μM, over 72 hr): significant cytoxicity
- MMP-9 levels in conditioned media (zymography) (gelatinase B (MMP-9)): decreased MMP-2 and MMP-9 levels at a lower concentration than did doxycycline
